Assay results as given in patent US12216125B2, “Method and kit for isotope-labelling of a glutathione-containing biological sample for mass spectrometry” (TECHNISCHE UNIVERSITÄT WIEN, priority 2018, dated 2025).

System: A549 lung carcinoma cells
Assay: Oxidative stress induction in A549 cells, GSH/GSSG measured by LC-MS/MS
Format: cell-based, human
Details: 100 μmol/L H2O2 for 15 min
Procedure: Cell culture: A549 human lung carcinoma cells were obtained from CLS Cell Lines Service, Eppelheim, Germany, and were cultured in RPMI medium supplemented with 10% fetal bovine serum and 2 mmol/L glutamine in a 5% CO2, 37° C. incubator. For H2O2 treatment, cells were seeded in 12-well plates (300000 cells/well) and after a day in culture treated with 500 μl of control (Ca2+, Mg2+-PBS) or 100 μmol/L H2O2 in Ca2+, Mg2+-PBS for 15 min followed by two PBS washing steps and the NEM (2.5 mmol/L) incubation step. The detailed stabilisation workflow is illustrated in FIG. 1 and example 2.
Method overview: The method was tested and fully optimized for three different sample types: cells, blood and tissue. In clinical measurements available sample amount is often a limiting factor. The high sensitivity of the presented method enables analysis of scarce samples as minimal sample amounts are required. Typically, 5 μL of blood, 3-5 mg of tissue sample or 300.000 cells were used as starting material. […] All three analytes GSH-NEM, GSH-d5-NEM and ^13C, ^15N-GSH-d5-NEM (IS) were then simultaneously measured by LC-MS/MS using an MRM-based approach (FIG. 1, step 4), see also example 4.
Chromatography was carried out on a Dionex UltiMate 3000 system equipped with a Zorbax SB-C18 column (50 mm×4.6 mm, 1.8 μm, Agilent, USA). […] The sum of areas under both peaks was used for integration and quantification. […]

`OO` [H2O2] was tested. Which GSH/GSSG ratio (GSSG measured as GSH-d5-NEM) did it give?
The GSH/GSSG ratio was “drastically reduced”.

What about the “intracellular GSH values” (vs control PBS) of the same molecule?
Its value is “depleted”.
